From US20210154190A1, “SHP2 INHIBITOR COMPOSITIONS AND METHODS FOR TREATING CANCER” (Revolution Medicines, Inc., priority 2018, published 2021)
Residue numbers refer to the chain shown, from its start. Several values for one entry are separate records, joined by “and”; a condition that tells them apart may be missing. Equal entries are not always repeated. Where two headings read alike, the source gives them in different places.

What was measured:
human SHP2-FL D61G = target: T1, human SHP2-FL D61G (Homo sapiens, UniProt Q06124, D61G); assay: SHP2 allosteric inhibition assay (DiFMUP), D61G; assay type: biochemical; details: for IC50: SHP2 D61G
T1 sequence (Q06124 1-593 D61G): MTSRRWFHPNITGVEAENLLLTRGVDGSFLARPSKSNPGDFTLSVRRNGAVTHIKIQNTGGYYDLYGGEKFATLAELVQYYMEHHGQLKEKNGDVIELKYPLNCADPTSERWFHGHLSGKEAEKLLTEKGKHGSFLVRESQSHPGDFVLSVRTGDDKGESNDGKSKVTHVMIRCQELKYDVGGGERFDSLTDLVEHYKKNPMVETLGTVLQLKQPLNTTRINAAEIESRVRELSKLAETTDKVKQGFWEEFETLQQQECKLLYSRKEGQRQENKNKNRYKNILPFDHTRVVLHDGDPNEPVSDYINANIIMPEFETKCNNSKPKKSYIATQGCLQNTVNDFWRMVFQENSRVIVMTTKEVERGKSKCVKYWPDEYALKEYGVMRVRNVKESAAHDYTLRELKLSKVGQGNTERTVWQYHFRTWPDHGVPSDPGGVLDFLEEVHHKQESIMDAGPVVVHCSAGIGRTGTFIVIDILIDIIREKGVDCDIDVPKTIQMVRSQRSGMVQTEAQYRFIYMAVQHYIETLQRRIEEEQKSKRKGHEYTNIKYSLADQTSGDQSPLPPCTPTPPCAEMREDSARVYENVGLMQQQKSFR
Method: (§1) Full-length SHP2 is allosterically activated through binding of bis-tyrosyl-phorphorylated peptides to its Src Homology 2 (SH2) domains. The latter activation step leads to the release of the auto-inhibitory interface of SHP2, which in turn renders the SHP2 protein tyrosine phosphatase (PTP) active and available for substrate recognition and reaction catalysis. The catalytic activity of SHP2 was monitored using the surrogate substrate DiFMUP in a prompt fluorescence assay format.
(§2) […] […] 50 μl stop solution (0.1 mM sodium pervanadate) was added to each well, the plate was shaken briefly to mix, and read in endpoint mode on a SpectraMax M5 plate reader (Molecular Devices) using excitation and emission wavelengths of 340 nm and 450 nm. Data was imported into GraphPad Prism. Plots of fluorescence intensity vs. log Molar [compound] were created and modeled with a 3-parameter sigmoidal concentration response equation in order to estimate IC50.
(§3) Reactions were then allowed to proceed for 30 minutes and stopped by the addition of a phosphatase inhibitor, sodium pervanadate. De-phosphorylation of DiFMUP results in production of a fluorescent product. Product fluorescence was determined and plotted as a function of compound concentration in order to determine the IC50 for each compound on each mutant using a four parameter sigmoidal dose response function in Prism (GraphPad).
(§4) NsCs mimics the role of the cytosolic domain of a protein tyrosine kinase in this model system.

human SHP2-FL L262R = target: T2, human SHP2-FL L262R (Homo sapiens, UniProt Q06124, L262R); assay: SHP2 allosteric inhibition assay (DiFMUP), L262R; assay type: biochemical
T2 sequence (Q06124 1-593 L262R): T1 sequence (Q06124 1-593 D61G) with G61D, L262R
Method: as §1, §2, §3, §4

SHP2 P491S = target: T3, SHP2 P491S (Homo sapiens, UniProt Q06124, P491S); assay: EGF-induced pERK AlphaLISA in T-REx-293-SHP2 cells, P491S; assay type: cell-based; details: Variant P491S
T3 construct: expressed in transfected cells; host or cells: Flp-In T-REx-293 (T-REx-293-SHP2)
Method: An experimental system was creating to test the activity of SHP2 mutants on an isogenic background (FIG. 6). The Flp-In T-REx-293 cell line was obtained from Gibco® and cultivated in high glucose DMEM™ containing 2 mM L-glutamine (Hyclone®), supplemented with 10% FBS (Hyclone®), 1% penicillin/streptomycin (Gibco®), 100 μg/mL Zeocin™ (Gibco®), and 15 μg/mL blasticidin (Gibco®) in a humidified cell culture incubator at 37° C., 5% CO2.
Wild type or mutant SHP2 variants were synthesized and subcloned into the pcDNA5/FRT/TO vector (ThermoFisher). Plasmids were co-transfected with the pOG44 Flp recombinase expression plasmid (ThermoFisher®) into Flp-In T-REx-293 cells using X-tremegene 9 DNA transfection reagent (Sigma®), according to the manufacturer's instructions. […]
For the final 5 minutes of drug treatment, cells were stimulated with 50 ng/mL Epidermal Growth Factor (Sigma®). […] Samples were read using an EnVision Multilabel Plate Reader (Perkin Elmer®) using standard AlphaLISA settings. Assay data was plotted and EC50 values were determined using four-parameter concentration-response model in GraphPad Prism 7. […]

| Structure (SMILES) | IC50 (human SHP2-FL D61G; 0.5 μM NsCs peptide (Activated), read-out: IC50) | IC50 (human SHP2-FL D61G; 0.5 μM NsCs peptide (Activated), read-out: pIC50 (converted)) | IC50 (human SHP2-FL D61G; No Peptide Control (Non-Activated), read-out: IC50) | IC50 (human SHP2-FL D61G; No Peptide Control (Non-Activated), read-out: pIC50 (converted)) | IC50 (human SHP2-FL L262R; IC50 (nM), SHP2 L262R 0.5 μM NsCs peptide (Activated), human SHP2-FL L262R, 0.5 μM NsCs peptide (activated)) | IC50 (human SHP2-FL L262R; human SHP2-FL L262R alone, no peptide (non-activated), read-out: IC50 (nM), SHP2 L262R No Peptide Control (Non-Activated)) | IC50 (human SHP2-FL L262R; human SHP2-FL L262R alone, no peptide (non-activated), read-out: pIC50, SHP2 L262R No Peptide Control (Non-Activated) (converted)) | IC50 (human SHP2-FL L262R; pIC50, SHP2 L262R 0.5 μM NsCs peptide (Activated), human SHP2-FL L262R, 0.5 μM NsCs peptide (activated)) | Biochemical sensitivity (human SHP2-FL D61G; Variant D61G) | Cellular sensitivity (SHP2 P491S) | Biochemical sensitivity (human SHP2-FL L262R; Variant L262R) |
| --- | --- | --- | --- | --- | --- | --- | --- | --- | --- | --- | --- |
| Nc1nc(N2CCC3(CCC[C@H]3N)CC2)cnc1Sc1ccnc(Cl)c1Cl [Compound 1] | 185 nM and 219 nM and 198 nM and 191 nM | 186 nM and 219 nM and 200 nM and 191 nM | 1.85 nM and 2.45 nM and 1.6 nM and 1.81 nM | 1.86 nM and 2.45 nM and 1.58 nM and 1.82 nM | 79.4 nM and 62.2 nM and 69.2 nM and 74.6 nM | 2.83 nM and 3.37 nM and 2.75 nM and 3.43 nM | 2.82 nM and 3.39 nM and 2.75 nM | 79.4 nM and 61.7 nM and 69.2 nM and 74.1 nM | – | – | – |
| Cc1nc(N2CCC3(CC2)CO[C@@H](C)[C@H]3N)c(CO)nc1-c1cccc(Cl)c1Cl [Compound B] | – | – | – | – | – | – | – | – | yes (Sensitive if IC50 < 2000 nM) | no (Sensitive if IC50 < 2000 nM) | yes (Sensitive if IC50 < 2000 nM) |
